According to US20090239875A1, “Protection of ferulic acid and/or tetramethylpyrazine against retinal ischaemia, glaucoma and siderosis oculi” (Committee on Chinese Medicine and Pharmacy, Department of …, priority 2008, published 2009):

What was measured:
[1] = test system: rats subjected to 60 min retinal ischaemia plus reperfusion (I/R); experiment: Flash ERG b-wave ratio after 60 min HIOP-induced retinal ischaemia plus reperfusion; assay type: in vivo, Wistar rat
From the text: Six-week old Wistar rats (body weight: 250˜500 g) were anaesthetized with an intramuscular injection of ketamine and xylazine as described above and placed in a stereotaxic frame. The anterior chamber of one eye, with the other serving as control, was cannulated with a 30-gauge needle connected to a 0.9% saline reservoir; this caused an increase in IOP to 120 mmHg. A whitening of the iris and the fundus of the retina confirmed induction of an ischaemic insult (Block, F., et al. Gen Pharmacol. 30(3):281-7, 1997).
(§1) For electro-physiological, immuohistochemical, and molecular biological studies, drug administration was carried out with pre-administration (60 minutes before HIOP) of vehicle (saline for FA/TMP), FA (0.5 or 0.1 nmole), or TMP (0.5 nmole). The 60-minute HIOP procedure to induce ischaemic damage was carried out as defined. Intra-vitreous injection (i.v.i.) of 5 μl of each compound was given to the ‘ischaemic’ eye of each test rat using a 30-gauge needle attached to a 20 μl Hamilton syringe. As a control, the same volume of vehicle was intravitreously injected into the “ischaemic” eye of each control rat. In both cases, the fellow untreated eye acted as a normal control eye. In this case, FA, TMP, or vehicle was applied only to the eye (ipsilateral) which received ischaemia. Dose-response experiments for FA will also be performed.

[2] = test system: ChAT immunoreactivity (cholinergic amacrine cells) in the ischaemic retina; experiment: ChAT immunofluorescence of the retina after ischaemia/reperfusion; assay type: in vivo, Wistar rat; settings: 7 days reperfusion
Experimental: On day 7 after retinal ischaemia pre-treated with vehicle or tested compounds, the Wistar rats were killed by an overdose of sodium pentobarbitone injected into the peritoneal cavity as mentioned earlier. Rat retinas were carefully and rapidly dissected from the eyecups with the aim of completely detaching the sensory retina from the RPEs. They were incubated in Mg^2+-free Locke's buffer containing: 154 mM NaCl, 5.6 mM KCl, 2.3 mM CaCl2, 3.6 mM NaHCO3, 5 mM N-[2-hydroxyethyl]piperazine-N′-[2-ethanesulfonic acid] (HEPES) and 5.6 mM D-glucose. The Locke's solution was briefly equilibrated before use with a gas mixture of 95% O2 and 5% CO2 at 37° C., pH 7.4. Retinal pieces were fixed for a further 45 minutes in 4% (w/v) paraformaldehyde in sodium phosphate buffer (0.2 M NaH2PO4.2H2O; 0.2M Na2HPO4; pH 7.4) and then transferred to 30% sucrose in sodium phosphate buffer for cryosectioning. Retinas were orientated and similarly mounted on a metal stand using O.C.T. compound (Merck Ltd) and then promptly frozen with dry ice. In this way, sections from similar areas were produced and thus the retinal sections (10 μm) had approximately the same eccentricity, which allowed direct comparison. […]

[3] = test system: Thy-1 immunoreactivity (retinal ganglion cells) in the ischaemic retina; experiment: Thy-1 immunofluorescence of the retina after ischaemia/reperfusion; assay type: in vivo, Wistar rat; settings: 0.5 nmole i.v.i. pre-treatment; 7 days after I/R
Experimental: as §1
On day 7 after retinal ischaemia pre-treated with vehicle or tested compounds, the Wistar rats were killed by an overdose of sodium pentobarbitone injected into the peritoneal cavity as mentioned earlier. Rat retinas were carefully and rapidly dissected from the eyecups with the aim of completely detaching the sensory retina from the RPEs. They were incubated in Mg^2+-free Locke's buffer containing: 154 mM NaCl, 5.6 mM KCl, 2.3 mM CaCl2, 3.6 mM NaHCO3, 5 mM N-[2-hydroxyethyl]piperazine-N′-[2-ethanesulfonic acid] (HEPES) and 5.6 mM D-glucose. […]

[4] = test system: Thy-1 mRNA; experiment: Semi-quantitative RT-PCR of Thy-1 mRNA in the retina after ischaemia/reperfusion; assay type: in vivo, Wistar rat; settings: 7 days after I/R, sham operation 100.0000, n=4
Experimental: as §1
Levels of Thy-1 mRNAs present in the retinas were determined using a semi-quantitative RT-PCR technique. These were compared with the mRNA levels measured for the house-keeping gene β-actin as an internal standard (Nucci, C., et al. Invest Opthalmol V is Sci. 48(7):2997-3004, 2007). Seven days after sham operation alone or retinal ischaemia pre-treated with vehicle or defined chemicals, the rats were killed and the retinas removed and sonicated in TriReagent (as per manufacturer's instructions). Total retinal RNA was isolated and first strand cDNA synthesis was performed on 4 μg DNase-treated RNA (Nash, M. S., et al. Invest. Opthalmol. Vis. Sci. 40:1293-8, 1999). […]
The PCR reaction products were separated on 1.5% agarose gels using ethidium bromide for visualization. The relative abundance of each PCR product was determined by analyzing photographs of the gels by SigmaScan (Jandel Scientific, Corte Madera, Calif.). […]

[5] = test system: hydroxyl radicals (.OH); experiment: Salicylate trapping / vitreous microdialysis of hydroxyl radicals (2,3-DHBA) in HIOP-induced retinal ischaemia; assay type: in vivo, Wistar rat; settings: for Levels of 2,3-DHBA (.OH) in vitreous dialysate: at 60 minutes of HIOP-induced retinal ischaemia, n=4
From the text: Rats were anesthetized and placed in a stereotaxic frame. This approach was adapted from Louzada-Junior et al with further modification. The microdilaysis tube was inserted into the vitreous cavity through the nonvascular pars plana of the sclera (0.5 mm from the corneal limbus) after it had been pre-punctured with a 25-gauge needle. This avoided the problem of bleeding into the vitreous cavity with consequent contamination of vitreous. With the microdialysis probe in position, the whole retina was subjected to HIOP-induced ischaemia for 120 minutes.
After an equilibration period of 45 min, a stable baseline was obtained. HIOP-induced retinal ischaemia was then performed. Samples were collected every 15 minutes starting 45 minutes before ischaemia and continuing for the subsequent 120-minute ischaemia. The microdialysates collected from the microdialysis probe were deposited into polyethylene vials (Microbiotech, Stockholm, Sweden) containing 15 μl of 0.1 M perchloric acid and were stored at −70° C. until analysis. The formation of .OH was quantified as the increase in 2,3-DHBA, which is the hydroxylative product of salicylic acid. Since 2,5-DHBA can also be produced via enzymatic pathways by virtue of P-450, 2,3-DHBA is considered to be a specific marker of .OH. Eluted microdialysates were directly injected into and 2,3-DHBA was analyzed by a high performance liquid chromatograph coupled with an electrochemical detector (HPLC-EC; Model LC-4C, Bioanalytical System Inc., West Lafayette, IN, USA).
The DHBA compound was oxidized using a glassy carbon working electrode (oxidation potential: +750 mV; model MF 1000, Bioanalytical System Inc., West Lafayette, IN, USA) and an Ag/AgCl reference electrode (model MW 2021, Bioanalytical System Inc., West Lafayette, IN, USA) with a special thin-layer gasket for the microbore LC-EC. In order to minimize dead volume, the column was connected directly between the micro-sampler and the working electrode. The mobile phase included 1-heptane sulfonic acid sodium salt (MW: 202.25) 3.15 g, EDTA 0.15 g, phosphoric acid 4.5 ml, triethylamine 5.25 ml, acetonitrile 255 ml, distilled water (added to 1.5 liters), pH 2.7. […] This is the first invention utilizing the defined modified microdialysis system for the measurement of .OH in the rat eye in vivo.
For electro-physiological, immuohistochemical, and molecular biological studies, drug administration was carried out with pre-administration (60 minutes before HIOP) of vehicle (saline for FA/TMP), FA (0.5 or 0.1 nmole), or TMP (0.5 nmole). The 60-minute HIOP procedure to induce ischaemic damage was carried out as defined. Intra-vitreous injection (i.v.i.) of 5 μl of each compound was given to the ‘ischaemic’ eye of each test rat using a 30-gauge needle attached to a 20 μl Hamilton syringe. […]

[6] = test system: ChAT immunoreactivity (cholinergic amacrine neurones) in the siderotic retina; experiment: ChAT immunofluorescence of the retina after experimental siderosis; assay type: in vivo, Wistar rat; settings: 0.5 nmole i.v.i. 60 minutes before siderosis; 25 nmole FeSO4 for 5 days
Experimental: (§2) Iron toxicity and the formation of .OH were stimulated by an intravitreous application of FeSO4 with or without the presence of the test compounds FA and/or TMP. For the dose-response iron toxicity experiments, 24 mM (72 nmoles), 8 mM (24 nmoles) and 0.8 mM (2.4 nmoles) of FeSO4 were utilized. To test drug biochemical effects on the oxidative stress caused by the experimental siderosis, an intravitreous injection of FA (100 mM) was carried out 60 minutes before siderosis. In further electro-physiological and immuohistochemical studies, with or without pre-administration of 0.5 or 0.1 nmoles of FA/TMP, a medium amount of FeSO4 (25 nmole) was chosen to induce damage due to such as an oxidative stress so as not to reach the maximal pharmacological effect.
The time course of the experiments involved enucleation of the rat eyes and retrieval of the retinal pieces on day 1 (Western blot), day 5 (immunohistochemistry) and day 28 (histopathology) after experimental siderosis with/without each test compound.
For immunohistochemical analysis, rats were intracardially perfused first with 0.9% saline and then with 4% (w/v) paraformaldehyde. […] In order to observe the expression of ‘ROS-related enzymes’, retinal sections were incubated with primary antibody: rabbit polyclonal anti-rat manganese SOD (1:100; Upstate, NY) or rabbit anti-catalase (1:1000; Calbiochem, CA). […]

[7] = test system: rats given experimental siderosis; experiment: Flash ERG in experimental siderosis (intravitreous FeSO4 or iron particle); settings: for Effect on FeSO4 induced reduction in the b-wave amplitudes: 0.5 or 0.1 nmoles pre-administered, 25 nmole FeSO4, 3 and 5 days after siderosis, vs saline-treated animals
Experimental: The animals were first dark adapted for at least 8 hours, anaesthetized as already described and the pupils dilated with 1% tropicamide and 2.5% phenylephrine. The animal was then placed in a stereotaxic frame and the body temperature maintained at 37° C. with an electrical blanket. A platinum wire loop was placed on the corneal surface to act as the recording electrode. A ground electrode was connected to the scruff of the back together with a reference electrode to the tongue of the animal. A strobe was placed 5 cm in front of the animal to provide a stimulus of 0.5 Hz. Fifteen consecutive responses were recorded at two-second intervals and at 10 kHz; the responses were amplified and averaged using an amplifier P511/regulated power supply RPS107/stimulator PS22 (Grass-Telefactor, Astro-Med. Inc., R1, USA). The a-wave amplitude was measured from the baseline to the trough of the a-wave and the b-wave amplitude was measured from the trough of the a-wave to the peak of the b-wave.
The Wistar rats were anesthetized with an intramuscular injection of ketamine (100 mg/kg) and xylazine (5 mg/kg), and placed in a stereotaxic frame. The chronic model of experimental siderosis was established as follows. Through a port punctured by a 20-gauge intravenous catheter (0.5 mm from the corneal limbus), an autoclaved defined iron particle was slowly and carefully implanted into the vitreous cavity of one eye of each experimental rat through the catheter sheath by the catheter inner shaft (a needle). The punctured wound was then sutured with sterilized 10-0 nylon to keep a close system. Similarly (0.5 mm from the corneal limbus) and guided by the 20-gauge intravenous catheter, an autoclaved acrylate chip was implanted into the vitreous cavity of one eye of each control rat.
Similarly, the acute model of experimental siderosis was set up utilizing various concentrations of iron sulfate with the control group being injected with saline. The animals were kept normothermic with a heated water jacket after anesthesia and were placed on an electrical blanket during recovery (both set at 37° C.).
as §2

[8] = test system: hydroxyl radicals (.OH); experiment: ROS assay in vivo (2,3-DHBA by vitreous microdialysis) in experimental siderosis
Experimental: Iron toxicity and the formation of .OH were stimulated by an intravitreous application of FeSO4 with or without the presence of the test compounds FA and/or TMP. For the dose-response iron toxicity experiments, 24 mM (72 nmoles), 8 mM (24 nmoles) and 0.8 mM (2.4 nmoles) of FeSO4 were utilized. To test drug biochemical effects on the oxidative stress caused by the experimental siderosis, an intravitreous injection of FA (100 mM) was carried out 60 minutes before siderosis.
Trapping of hydroxyl radicals was accomplished by perfusing physiological saline containing 5 mM salicylic acid through a microdialysis probe (CMA/12, PC 14/01, CMA/Microdialysis, Stockholm, Sweden) inserted into the vitreous cavity of a rat eye after intra-vitreous implantation of either an iron or acrylate chip for the defined chronic model and its control. […] Salicylate was infused at the rate of 1.1 μl/min using a 1-ml Exmire microsyringe attached to a microdialysis pump (CMA-100, CMA/Microdialysis, Stockholm, Sweden). This was carried out every 15 or 20 minutes starting either 60 or 20 minutes before the implantation/injection and continued for 6 hours or 120 minutes following treatment, respectively. […] The hydroxyl radicals were quantified by using 8, 16, 24, 32 and 40 pmoles of 2,3-DHBA (which is photosensitive and can be dissolved in ethanol) as an internal standard.

[9] = test system: glutamate release in the retina
Experimental: Using the same microdialysis system as the ROS assay in vivo, each microdialysate was assayed for the presence of derivatized glutamate product by HPLC with a fluorescence detector (FL; model CMA/280, CMA/Microdialysis, Stockholm, Sweden). The derivatization reaction was carried out at room temperature. O-phthalaldehyde (OPA; 27 mg; Fisher Scientific, Loughborough, UK) was dissolved in 1 ml methanol, 9 ml 0.4 M potassium tetraborate (MW: 303.53; borate buffer: 1.5 g borate plus pure water adjusted to pH 9.5 with 6 M NaOH and then added with water to 100 ml) and 5 μl β-mercaptoethanol (Fisher Scientific, Loughborough, UK). The OPA stock reagent was covered in foil and stored at −20° C. for 1 month. The OPA working solution was prepared each day by diluting 1 ml of the OPA stock reagent with 3 ml of potassium tetraborate (0.4 M). […] For the HPLC separation, the detector output voltage (signal) was monitored using one data system (Scientific Information Service Corporation, Taiwan). […]
Before use, the mobile phase was filtered through a 0.22 μm filter (Millipore) using vacuum assistance. […] The detection sensitivity was 10 M. All standard samples and test samples were analyzed in duplicate.

[10] = test system: cortical cells; settings: 40 μM FeSO4 vs saline; n=5
Experimental: The cortical cells to be tested were placed on a cover slip and loaded with calcium ion sensitive dye by incubation with a final concentration of 5 μM of the acetoxymethyl ester form of Fura-2 for 30 min at 37° C. in the 1 ml loading buffer. The cover slip was washed three times with buffer containing 150 mM NaCl, 5 mM KCl, 2.2 mM CaCl2, 1 mM MgCl2, 5 mM glucose, 10 mM HEPES, pH 7.4. A micropipette was pulled from a glass capillary by a micropipette puller (P-97, Sutter Instrument Co.) and the tip was polished in a microforge (o.d. 2 μm, MF-83, Narishige). The micropipette was backfilled with the test compound (40 μM FeSO4 or saline) using a fine tip syringe. The cover slip was mounted on an inverted microscope to measure single-cell fluorescence. The ejection mircropipette was positioned at a distance of 10 μm from a cell. A short pulse (0.5s) of the test compound was then applied to a single cell through the micropipette by a microinjection system (Picospritzer II, General Valve) with a pressure of 15 psi. The intracellular calcium concentration, [Ca^2+]i, was calculated using the ratio between the fluorescence at 340 nm and at 380 nm (F340/F380). Changes in the fluorescence ratio represent the changes in the [Ca^2+]i (Yang, D. M., et al. J Microsc 209: 223-227, 2003).

[11] = 0.5 nmole i.v.i. 60 min before 60 min HIOP, 3 days after I/R
[12] = 0.5 nmole i.v.i. 60 min before 60 min HIOP, 5 days after I/R
[13] = 0.5 nmole i.v.i. 60 min before 60 min HIOP, 7 days after I/R
[14] = 0.5 nmole i.v.i. 60 min before ischaemia
[15] = 0.5 nmole i.v.i. 1 hour before ischaemia
[16] = FeSO4 injected five days earlier, particular example

Compound: COc1cc(/C=C/C(=O)O)ccc1O [FA, ferulic acid]
- ERG b-wave ratio (ischaemic eye vs contralateral normal eye) ([1]; 0.1 nmole i.v.i. 60 min before 60 min HIOP, 3 days after I/R): 32.2402±6.3012
- ERG b-wave ratio (ischaemic eye vs contralateral normal eye) ([1]; 0.1 nmole i.v.i. 60 min before 60 min HIOP, 5 days after I/R): 35.0948±4.6412
- ERG b-wave ratio (ischaemic eye vs contralateral normal eye) ([1]; 0.1 nmole i.v.i. 60 min before 60 min HIOP, 7 days after I/R): 47.0775±5.5396
- ERG b-wave ratio (ischaemic eye vs contralateral normal eye) [1, 11]: 48.3576±3.1633
- ERG b-wave ratio (ischaemic eye vs contralateral normal eye) [1, 12]: 56.4287±6.9891
- ERG b-wave ratio (ischaemic eye vs contralateral normal eye) [1, 13]: 65.8600±6.0998
- Effect on I/R-induced changes in ChAT immunoreactivity ([2]; 0.1 nmole i.v.i. 60 min before ischaemia): only a partial counteracting effect
- Effect on I/R-induced changes in ChAT immunoreactivity [2, 14]: obviously nullified
- Attenuation of ischaemia-induced reduction in thickness of Thy-1 immunolabeling [3]: around 15%
- Thy-1 mRNA/β-actin mRNA ratio ([4]; 0.1 nmole i.v.i. 1 hour before ischaemia): 65.8968±11.9579
- Thy-1 mRNA/β-actin mRNA ratio [4, 15]: 85.1745±10.3177
- Levels of 2,3-DHBA (.OH) in vitreous dialysate ([5]; 0.1 nmole pre-treatment): 3.48 pmol/15 µL perfusate
- Attenuation of ischaemia-evoked increased 2,3-DHBA levels ([5]; 0.5 nmole pre-treatment, 60 minutes of ischaemia, vs vehicle-pre-treated ischaemic eyes): around 2 folds
- Levels of 2,3-DHBA (.OH) in vitreous dialysate ([5]; 0.5 nmole pre-treatment): 2.8574±0.7186 pmole/15 μl perfusate
- Effect on iron-induced changes in ChAT immunoreactivity [6]: counteracted
- Effect on FeSO4 induced reduction in the b-wave amplitudes [7]: significantly alleviated
- Effect on production of OH (2,3-DHBA) in siderosis ([8]; 100 μM, siderotic rats insulted by 8 mM FeSO4, vs saline): significantly decreased
- Effect on formation of .OH (2,3-DHBA) in siderosis ([8]; i.v.i. 60 minutes before siderosis, 8 mM FeSO4): dose-dependently and significantly decreased

Compound: ferrous sulfate [FeSO4]
- Glutamate release in the retina ([9]; 24 mM and/or 8 mM FeSO4, peaks 20 and 40 minutes after siderosis, vs saline): dose-dependent release of glutamate
- Glutamate concentration in vitreous dialysate ([9]; 20 minutes after ferrous sulfate treatment (8 mM)): 722 nM
- Change in [Ca^2+]i (fura-2 ratio F340/F380) [10]: significant increase
- ERG b-wave ratio after intravitreous FeSO4 ([7]; 8 mM FeSO4 (3 μl) intravitreous, at 2 hours): about 45%
- ERG a-wave ratio of siderotic eye to normal fellow eye [7, 16]: 40.56%
- ERG b-wave ratio of siderotic eye to normal fellow eye [7, 16]: 30.70%
- 2,3-DHBA formed ([8]; 20 minutes after injection of 8 mM FeSO4): 91.23 pmol

Compound: Cc1nc(C)c(C)nc1C [TMP, tetramethylpyrazine]
- ERG b-wave ratio (ischaemic eye vs contralateral normal eye) [1, 11]: 17.9250±11.7135
- ERG b-wave ratio (ischaemic eye vs contralateral normal eye) [1, 12]: 17.1500±6.8996
- ERG b-wave ratio (ischaemic eye vs contralateral normal eye) [1, 13]: 20.1750±8.5027
- Effect on I/R-induced changes in ChAT immunoreactivity [2, 14]: not affected
- Thy-1 mRNA/β-actin mRNA ratio [4, 15]: 46.5876±14.4476
- Levels of 2,3-DHBA (.OH) in vitreous dialysate ([5]; 0.5 nmole pre-treatment): 4.6865±1.2661 pmole/15 μl perfusate
- Effect on FeSO4 induced reduction in the b-wave amplitudes [7]: tended to alleviate
